Test results taken from US9580524B2, “Vinylcyclopropane, monomer composition, polymer, polymer composition, and article” (Dexerials Corporation, priority 2014, dated 2017).

Columns and labels:
[1] = Volume change upon polymerization (monomer and polymer density by dry automatic pycnometer); format: physicochemical; conditions: for Volume change: ((Monomer density)−(Polymer density))/(Monomer density)×100, positive = expansion, negative = shrinkage; for Polymer density: after polymerization; for Polymer density / Monomer density: 25° C.; for Monomer density: prior to polymerization
Description: Volume change relative to monomer volume refers to the change in volume of the polymer relative to the volume of the monomer or monomers that are constituent components of the polymer. This volume change relative to monomer volume is obtained through the following equation by measuring the density of the monomer(s) at 25° C. prior to polymerization (monomer density) and the density of the polymer at 25° C. after polymerization (polymer density). ((Monomer density)−(Polymer density))/(Monomer density)×100(%)
First, polymerization of the obtained monomer (compound represented by structural formula (6)) was performed as follows.
A freezing ampoule (20 mL) was charged with 4.03 mg of AIBN (4 mol %), 440.2 mg (0.61 mmol) of Ad-MVCP, and 0.267 g (0.31 mL) of toluene, and the monomer was dissolved. Thereafter, freeze drying was performed three times and dissolved oxygen was removed. The freezing ampoule was immersed in an oil bath and was heated for 48 hours at 60° C. to polymerize the monomer. After polymerization, the freezing ampoule was cooled by liquid nitrogen to quench radicals. Next, 50 mL of toluene was added to the freezing ampoule in order to dissolve undissolved components other than the polymer and suction filtration was then performed. Polymer filtered onto filter paper as a result was washed with toluene and acetone, was vacuum dried for 48 hours at 100° C., and was collected as a white solid polymer. The collected polymer was used as an evaluation sample.
The volume change upon polymerization was calculated using the following equation by measuring the monomer density and polymer density of each sample prepared by the procedure described above using a dry automatic pycnometer (AccuPyc II 1340 produced by Shimadzu Corporation). ((Monomer density)−(Polymer density))/(Monomer density)×100(%)
A positive calculated value indicates volume expansion whereas a negative calculated value indicates volume shrinkage.
Note that in Comparative Example 3, polymerization of the monomer was performed by bulk polymerization based on the aforementioned document. A freezing ampoule (20 mL) was charged with 15.8 mg (0.096 mmol) of AIBN and 1.000 g (2.41 mmol) of Me-MVCP, and the monomer was dissolved. Thereafter, freeze drying was performed three times and dissolved oxygen was removed. The freezing ampoule was immersed in an oil bath and was heated for 48 hours at 60° C. to polymerize the monomer. After polymerization, the freezing ampoule was cooled by liquid nitrogen to quench radicals. Next, 50 mL of toluene was added to the freezing ampoule in order to dissolve undissolved components other than the polymer and suction filtration was then performed. Polymer filtered onto filter paper as a result was sufficiently washed with toluene and acetone, was vacuum dried for 48 hours while heating at 100° C., and was collected as a white solid polymer. The collected polymer was used as an evaluation sample.
Note that in Example 2, 0.159 g (0.479 mmol) of DCP, 0.341 g (0.479 mmol) of Ad-MVCP, and 0.2 mL of toluene (dehydrated) were added into an ampoule with a stirrer, were heated to 70° C., and were homogenized by stirring. After performing cooling to room temperature, a dilute solution of AIBN (6.3 mg (0.038 mmol) of AIBN dissolved in 0.28 mL of toluene (dehydrated)) was added to the ampoule. The ampoule was sealed using a gas burner after performing freeze degassing of the ampoule. The ampoule was immersed in an oil bath and a reaction was carried out for 48 hours at 60° C. After the reaction, the ampoule was immersed in liquid nitrogen and a polymer was collected. The resultant polymer was sufficiently washed with toluene and acetone and was vacuum dried for 48 hours while heating at 100° C., and a white solid polymer was collected. The collected polymer was used as an evaluation sample.
Ad-MVCP in an amount of 0.153 g (0.215 mmol) and DCP in an amount of 0.072 g (0.216 mmol) were dissolved and homogenized in 0.3 mL of acetone. […]

[2] = Polymer heat resistance (thermogravimetric analyzer); format: physicochemical; conditions: homopolymer
Description: Heat resistance of the polymer used in (i) evaluation of volume change upon polymerization was evaluated using a thermogravimetric analyzer (producer: Seiko Instruments Incorporated, product name: EXSTAR6000). Furthermore, thermogravimetric change of the obtained polymer was measured to obtain a temperature at which a 10% reduction in weight was reached and the 10% weight loss temperature was taken to be the pyrolysis temperature (Td^10).

[3] = Polymer dynamic viscoelasticity (DMA, tension mode) of the cured product; format: physicochemical; conditions: for Tg (glass-transition temperature): maximum of tan δ, frequency 11.0 Hz
Description: The obtained monomer was homogenized with 0.5 parts by mass of PERHEXA HC (producer: NOF Corporation) and 0.2 mL of acetone added thereto, was subsequently poured into a 10 mm×40 mm×0.5 mm silicone rubber sheet mold prepared on an aluminum plate, and was transferred into a vacuum oven. Acetone solvent was first vaporized while maintaining the temperature at room temperature and the pressure at 20 cmHg to 40 cmHg, and thereafter the pressure was restored to normal pressure and curing was performed for 5 hours at 140° C. to prepare a cured product. The cured product that was prepared was evaluated by measurement as described below using a tension mode of a dynamic mechanical analyzer (DMA).
The cured product was set in the dynamic mechanical analyzer (producer: TA Instruments, product name: RSA3) and the device was used to measure the storage modulus (E′) in a temperature range of from 30° C. to 300° C. with a heating rate of 10.0° C./min. Furthermore, the temperature corresponding to a maximum value of tan δ (loss modulus/storage modulus) obtained under a measurement condition of a frequency of 11.0 Hz was taken to be the glass-transition temperature (Tg).

[4] = background statement; cited from earlier work
[5] = Monomer solubility in various solvents; format: physicochemical; conditions: 40 mg monomer in 1.0 mL
Description: The solubility of 40 mg of the obtained monomer in 1.0 mL of various solvents (methyl ethyl ketone (MEK), acetone, propylene glycol monomethyl ether acetate (PGMEA), and cyclohexanone) was evaluated.

Compound	Volume change [1]	Polymer density [1]	Monomer density [1]	Td^10 (pyrolysis temperature, 10% weight loss temperature) [2]	Tg (glass-transition temperature) [3]	solubility in solvents such as acetone [4]	Solubility ([5]; Acetone)	Solubility ([5]; Cyclohexanone)	Solubility ([5]; MEK)	Solubility ([5]; PGMEA)	E′ (storage modulus) ([3]; 50° C., 5 hours at 140° C.)	E′ (storage modulus) ([3]; 120° C.)	E′ (storage modulus) ([3]; 140° C.)	E′ (storage modulus) ([3]; 160° C.)
C=CC1CC1(C(=O)OC12CC3CC(CC(C3)C1)C2)C(=O)OC12CC3CC(CC(C3)C1)C2 (stereo not shown) [Comparative Example 2, 1,1-bis[(1-adamantyloxy)carbonyl]-2-vinylcyclopropane]	+4.3%	1.127 g/mL	1.178 g/mL	361 °C	23 °C	poor	Poor	Mediocre	Poor	Poor	–	–	–	–
C=CC1CC1(C(=O)OC12CC3CC(CC(C3)C1)C2)C(=O)OC12CC3CC(C1)CC(OC(=O)C1(C(=O)OC45CC6CC(CC(C6)C4)C5)CC1C=C)(C3)C2 (stereo not shown) [Example 1, 1,3-bis[(1-adamantyloxycarbonyl-2-vinylcyclopropane-1-yl)carbonyloxy]adamantane]	+6.1%	1.198 g/mL	1.275 g/mL	399 °C	235 °C	–	Excellent	Excellent	Excellent	Excellent	1.10 × 10^9 Pa	7.40 × 10^8 Pa	6.60 × 10^8 Pa	7.00 × 10^8 Pa
tricyclodecane dimethanol dimethacrylate [Comparative Example 1]	−8.5%	1.194 g/mL	1.101 g/mL	–	>271.1 °C	–	–	–	–	–	1.70 × 10^9 Pa	9.60 × 10^8 Pa	8.00 × 10^8 Pa	6.60 × 10^8 Pa
